Experimental data taken from patent US10782295B2, “Cysteine-reactive ligand discovery in proteomes” (THE SCRIPPS RESEARCH INSTITUTE, priority 2013, dated 2020).

Key:
Format in all cases: cell-based, human
JNK pathway activation [1] = assay: Western blotting of phospho-JNK in WT-ZAK-transfected HEK-293T cells
Procedure: (§1) We next set out to assess the functional effects of HNE modification of ZAK in human cells. HEK-293T cells were stably transfected with cDNAs for WT-ZAK, C22A-ZAK, or K45M-ZAK and the activation state of their MAPK signaling pathways was monitored by western blotting with anti-phosphoprotein antibodies. […] We next treated cells with H2O2 (1 mM, 30 min) to induce oxidative stress, a process that is known to activate the JNK pathway^41,42. H2O2 treatment stimulated JNK activity in both WT- and C22A-ZAK-transfected cells (but not K45M-ZAK-transfected cells), with WT-ZAK cells showing the greater level of activation (FIG. 5b,c). […] We interpret these findings to indicate the existence of both ZAK-dependent and ZAK-independent pathways for HNE modulation of JNK activation (FIG. 5d). By modifying C22 on ZAK, HNE blocks the contribution that this kinase makes to the activation of the JNK pathway. […]
(§2) Mouse and rabbit monoclonal antibodies against phospho-ERK 1/2 (Thr202/Tyr204), phosphor-SAPK/JNK (Thr183/[…]), phosphor-p38 MAPK (Thr180/[…]) and total ERK 1/2, SAPK/JNK and p38 MAPK were purchased from Cell Signaling Technology. […] Protein band intensities were quantified by ImageJ8 and ratios of phosphor-MAPK over total MAPK were computed. […]

[2] = test system: cysteines in ZAK, EEF2, RTN4 and FN3KRP; assay: in situ competitive isoTOP-ABPP in MDA-MB-231 cells; details: MDA-MB-231 cells treated with 50 or 100 μM HNE
Procedure: By combining the R values at all 5 HNE concentrations, we could extrapolate IC50 values for […] of IA probe-labeling for ˜700 of the 1100 cysteines (FIG. 3a).
After MDA-MB-231 cells were grown to 100% confluency, the media was removed and replaced with fresh serum-free media containing 100 μM HNE (20 μL of […] stock in 10 mL media). A control flask of cells was treated with 10 mL of serum-free media containing 20 uL of ethanol in parallel. The cells were incubated at 37° C. for 1 hour and harvested as detailed above to prepare HNE-treated and control proteomes, respectively. […]
IA-probe labeled peptides were identified by SEQUEST2 and DTASelect3, and the quantification of heavy/light ratios (isoTOP-ABPP ratios, R) was performed by an in-house software (CIMAGE) as previously described. The software was advanced to be able to detect and quantify cases where near complete […] blockade of IA-probe labeling was achieved (e.g., very small or no light peak) and assign an empirical ratio cut-off of 15 to each of such cases. […] In the case of probe-modified peptides that were sequenced in one, but not the other runs, a featured algorithm of CIMAGE was utilized to identify the corresponding peak pairs in the runs without the SEQUEST identification and obtain quantification as previously described. […]

JNK pathway activation [3] = assay: Western blotting of phospho-JNK in C22A-ZAK-transfected HEK-293T cells
Procedure: as §1, §2

[4] = pre-treatment 100 μM, 30 min, then H2O2 1 mM, 30 min

## CCCCCC(O)/C=C/C=O (centres unmarked) [4-HNE, 4-Hydroxynonenal]
JNK pathway activation [1]; 50 or 100 μM, 60 min
  JNK activation by HNE alone, WT-ZAK-transfected cells: mostly unaffected
JNK pathway activation [1]; [4]
  H2O2-dependent JNK activation, WT-ZAK cells: blocking H2O2-dependent JNK activation
[2]
  inhibition of the most HNE-sensitive cysteines in situ: strongly inhibited
JNK pathway activation [3]; 50 or 100 μM, 60 min
  JNK activation by HNE alone, C22A-ZAK-transfected cells: dramatic concentration-dependent activation of JNK
JNK pathway activation [3]; [4]
  H2O2-dependent JNK activation, C22A-ZAK cells: hyper-activating JNK activity
